Experimental data published in patent publication US8324264B1, “Inhibitors of bacterial biofilms and related methods” (Sequoia Sciences, Inc., priority 2011, dated 2012).
In brackets after ≈: the same amount, converted by molar mass.

Tests used:
[1] = system: E. coli biofilms; assay: Biofilm growth assay (spreading biofilm on semi-solid agar), E. coli; type: cell-based; settings: biofilm growth assay, overnight 37° C., vs negative controls, Tables 1-5; for IC85: Escherichia coli, read-out: E. coli: concentration that reduces the area of the spreading biofilm by greater than or equal to 85%
From the text: (§1) “Biofilm Growth Assay” refers to an assay performed on semi-solid agar surface where the bacteria collectively move out from an inoculation point. To those skilled in the art, the act of bacteria collectively moving out from an inoculation point on a semi-solid surface may be referred to as swarming or a spreading biofilm. (Anderson, et al Microbiology, 2003, 149, 37-46; Daniels, et al. FEMS Microbiology Reviews, 2004, 28, 261-289). The procedure to perform this assay is described in detail in the Examples. This type of surface motility by bacteria has been reported in the literature by those skilled in the art. […] These references are incorporated herein by reference in their entirety.
(§2) The biofilm growth assay was carried out to measure swarming or biofilm spreading on semi-solid agar media in round plates (for example, 100×15 mm), also referred to as Petri dishes. For E. coli, the plates contained LB medium with 0.6% agar and 0.5% glucose. P. aeruginosa plates were made with M8 agar supplemented with 0.2% glucose, 100 μM CaCl2, 1 mM MgSO4, and 0.5% Casamino acids. The agar plates of this assay consisted of 0.4% to 0.7% agar (Bacto or Noble agar), although other media may also be used as described in the literature and known to those skilled in the art. Test compounds at the desired concentration were added to the cooled, autoclaved media. Portions of the media were then poured into the plates (20 mL/plate), and the plates allowed to dry at room temperature for approximately 3 to 4 hours. Alternatively, however, plates may be dried in a laminar flow hood for approximately fifteen to twenty minutes. Overnight cultures were grown in a 37° C. shaker in LB (E. coli) or TSB (P. aeruginosa). Plates were inoculated by placing 5 μL of the appropriate overnight culture in the centers of the plates. The plates then were incubated overnight at 37° C. The area of the zone of spreading bacteria was then measured and replicates are averaged. Percent inhibition was calculated as 100×(area without compound−area with compound)/(area without compound). An active compound was considered that which reduces the area of the spreading biofilm compared to negative controls by greater than or equal to 85%. The values shown in Table 1 are the concentrations of compounds (μg/ml) tested in the biofilm growth assay that reduce the area of the spreading biofilm compared to negative controls by greater than or equal to 85% unless noted differently in Table 1. A > (“greater than” symbol) as used in Table 1 is well understood to those skilled in the art as an indication that the listed concentration was not effective at this concentration.
(§3) All of the compounds shown in Tables 2, 3, 4, and 5, below, were prepared semi-synthetically from oleanolic acid, except for Compounds 2 and 3. Compound 2 was prepared from ursolic acid. Compound 3 was prepared from hederagenin, but could also be prepared from an oleanolic acid analog with a hydroxyl at C23 or C24. These compounds were tested in the spreading biofilm assay according to the methods detailed in Example I, above. The values shown in Tables 2, 3, 4, and 5 are the concentrations of compounds tested in the biofilm growth assay that reduce the area of the spreading biofilm compared to negative controls by greater than or equal to 85%.

[2] = system: P. aeruginosa biofilms; assay: Biofilm growth assay (spreading biofilm on semi-solid agar), P. aeruginosa; type: cell-based; settings: biofilm growth assay, overnight 37° C., vs negative controls, Tables 1-5; for IC85: Pseudomonas aeruginosa, read-out: P. aeruginosa: concentration that reduces the area of the spreading biofilm by greater than or equal to 85%
From the text: as §1, §2, §3

Structure (SMILES) | IC85 [1] [µg/mL] | IC85 [2] [µg/mL] | E. coli: concentration that reduces the area of the spreading biofilm by greater than or equal to 85% [1] [µg/mL] | P. aeruginosa: concentration that reduces the area of the spreading biofilm by greater than or equal to 85% [2] [µg/mL]
CC1(C)CC[C@]2(C(=O)n3cnc(S)n3)CC[C@]3(C)C(=CCC4[C@@]5(C)Cc6c(n[nH]c6N)C(C)(C)C5CC[C@]43C)C2C1 (stereo partly drawn) [Compound 76, ((4aS,6aS,6bR,13aR)-12-Amino-2,2,6a,6b,9,9,13a-heptamethyl-2,3,4,4a,5,6,6a,6b,7,8,8a,9,11,13,13a,13b,14,15b-octadecahydro-1H-chryseno[1,2-f]indazol-4-a-yl)(3-mercapto-1H-1,2,4-triazol-1-yl)methanone] | 2 (≈ 3.47 µM) | 0.5 (≈ 0.867 µM) |  | 
Cc1nnc(S)n1NC(=O)[C@]12CCC(C)(C)CC1C1=CCC3[C@@]4(C)Cc5c(n[nH]c5N)C(C)(C)C4CC[C@@]3(C)[C@]1(C)CC2 (stereo partly drawn) [Compound 77, (4aS,6aS,6bR,13aR)-12-Amino-N-(3-mercapto-5-methyl-4H-1,2,4-triazol-4-yl)-2,2,6a,6b,9,9,13a-heptamethyl-2,3,4,4a,5,6,6a,6b,7,8,8a,9,11,13,13a,13b,14,15b-octadecahydro-1H-chryseno[1,2-f]indazole-4-a-carboxamide] | 2 (≈ 3.3 µM) | 1 (≈ 1.65 µM) |  | 
CC1(C)CC[C@]2(c3nnc(O)s3)CC[C@]3(C)C(=CCC4[C@@]5(C)Cc6c(n[nH]c6N)C(C)(C)C5CC[C@]43C)C2C1 (stereo partly drawn) [Compound 78, 5-((4aS,6aS,6bR,13aR)-12-Amino-2,2,6a,6b,9,9,13a-heptamethyl-2,3,4,4a,5,6,6a,6b,7,8,8a,9,11,13,13a,13b,14,15b-octadecahydro-1H-chryseno[1,2-f]indazol-4-a-yl)-1,3,4-thiadiazol-2-ol] |  |  | 1 | >1
CC1(C)CC[C@]2(C(=O)Nc3nnc(S(N)(=O)=O)s3)CC[C@]3(C)C(=CCC4[C@@]5(C)Cc6c(n[nH]c6N)C(C)(C)C5CC[C@]43C)C2C1 (stereo partly drawn) [Compound 80, (4aS,6aS,6bR,13aR)-12-Amino-2,2,6a,6b,9,9,13a-heptamethyl-N-(5-sulfamoyl-1,3,4-thiadiazol-2-yl)-2,3,4,4a,5,6,6a,6b,7,8,8a,9,11,13,13a,13b,14,15b-octadecahydro-1H-chryseno[1,2-f]indazole-4-a-carboxamide] |  |  | 1 | 1
CC1(C)CC[C@]2(c3n[nH]c(O)c3CCO)CC[C@]3(C)C(=CCC4[C@@]5(C)Cc6c(n[nH]c6N)C(C)(C)C5CC[C@]43C)C2C1 (stereo partly drawn) [Compound 81, 3-((4aS,6aS,6bR,13aR)-12-Amino-2,2,6a,6b,9,9,13a-heptamethyl-2,3,4,4a,5,6,6a,6b,7,8,8a,9,11,13,13a,13b,14,15b-octadecahydro-1H-chryseno[1,2-f]indazol-4-a-yl)-4-(2-hydroxyethyl)-1H-pyrazol-5-ol] |  |  | 1 | 0.5
Cc1c([C@]23CCC(C)(C)CC2C2=CCC4[C@@]5(C)Cc6c(n[nH]c6N)C(C)(C)C5CC[C@@]4(C)[C@]2(C)CC3)n[nH]c1O (stereo partly drawn) [Compound 82, 3-((4aS,6aS,6bR,13aR)-12-Amino-2,2,6a,6b,9,9,13a-heptamethyl-2,3,4,4a,5,6,6a,6b,7,8,8a,9,11,13,13a,13b,14,15b-octadecahydro-1H-chryseno[1,2-f]indazol-4-a-yl)-4-methyl-1H-pyrazol-5-ol] |  |  | 1 | 0.5
CC1(C)CC[C@]2(c3n[nH]c(O)c3F)CC[C@]3(C)C(=CCC4[C@@]5(C)Cc6c(n[nH]c6N)C(C)(C)C5CC[C@]43C)C2C1 (stereo partly drawn) [Compound 83, 3-((4aS,6aS,6bR,13aR)-12-Amino-2,2,6a,6b,9,9,13a-heptamethyl-2,3,4,4a,5,6,6a,6b,7,8,8a,9,11,13,13a,13b,14,15b-octadecahydro-1H-chryseno[1,2-f]indazol-4-a-yl)-4-fluoro-1H-pyrazol-5-ol] |  |  | 0.5 | 0.25
CC1(C)CC[C@]2(c3n[nH]c(O)c3CCN)CC[C@]3(C)C(=CCC4[C@@]5(C)Cc6c(n[nH]c6N)C(C)(C)[C@@H]5CC[C@]43C)[C@@H]2C1 (stereo partly drawn) [Compound 84, 3-((4aS,6aS,6bR,13aR)-12-Amino-2,2,6a,6b,9,9,13a-heptamethyl-2,3,4,4a,5,6,6a,6b,7,8,8a,9,11,13,13a,13b,14,15b-octadecahydro-1H-chryseno[1,2-f]indazol-4-a-yl)-4-(2-aminoethyl)-1H-pyrazol-5-ol] | 0.5 (≈ 0.87 µM) | 0.125 (≈ 0.217 µM) |  | 
CN(C)CCc1c([C@]23CCC(C)(C)CC2C2=CCC4[C@@]5(C)Cc6c(n[nH]c6N)C(C)(C)C5CC[C@@]4(C)[C@]2(C)CC3)n[nH]c1O (stereo partly drawn) [Compound 85, 3-((4aS,6aS,6bR,13aR)-12-Amino-2,2,6a,6b,9,9,13a-heptamethyl-2,3,4,4a,5,6,6a,6b,7,8,8a,9,11,13,13a,13b,14,15b-octadecahydro-1H-chryseno[1,2-f]indazol-4-a-yl)-4-(2-(dimethylamino)ethyl)-1H-pyrazol-5-ol] |  |  | 1 | 0.5
CNCCc1c([C@]23CCC(C)(C)CC2C2=CCC4[C@@]5(C)Cc6c(n[nH]c6N)C(C)(C)C5CC[C@@]4(C)[C@]2(C)CC3)n[nH]c1O (stereo partly drawn) [Compound 86, 3-((4aS,6aS,6bR,13aR)-12-Amino-2,2,6a,6b,9,9,13a-heptamethyl-2,3,4,4a,5,6,6a,6b,7,8,8a,9,11,13,13a,13b,14,15b-octadecahydro-1H-chryseno[1,2-f]indazol-4-a-yl)-4-(2-(methylamino)ethyl)-1H-pyrazol-5-ol] |  |  | 2 | 0.5
CC1(C)CC[C@]2(c3n[nH]c(O)c3N3CCOCC3)CC[C@]3(C)C(=CCC4[C@@]5(C)Cc6c(n[nH]c6N)C(C)(C)[C@@H]5CC[C@]43C)[C@@H]2C1 (stereo partly drawn) [Compound 88, 3-((4aS,6aS,6bR,13aR)-12-Amino-2,2,6a,6b,9,9,13a-heptamethyl-2,3,4,4a,5,6,6a,6b,7,8,8a,9,11,13,13a,13b,14,15b-octadecahydro-1H-chryseno[1,2-f]indazol-4-a-yl)-4-morpholino-1H-pyrazol-5-ol] | 0.5 (≈ 0.811 µM) | 0.25 (≈ 0.405 µM) |  | 
CN1CCN(c2c([C@]34CCC(C)(C)CC3C3=CCC5[C@@]6(C)Cc7c(n[nH]c7N)C(C)(C)C6CC[C@@]5(C)[C@]3(C)CC4)n[nH]c2O)CC1 (stereo partly drawn) [Compound 89, 3-((4aS,6aS,6bR,13aR)-12-Amino-2,2,6a,6b,9,9,13a-heptamethyl-2,3,4,4a,5,6,6a,6b,7,8,8a,9,11,13,13a,13b,14,15b-octadecahydro-1H-chryseno[1,2-f]indazol-4-a-yl)-4-(4-methylpiperazin-1-yl)-1H-pyrazol-5-ol] |  |  | 1 | 1
CC1(C)CC[C@]2(C(=O)O)CC[C@]3(C)C(=CCC4[C@@]5(C)Cc6c[nH]nc6C(C)(C)C5CC[C@]43C)C2C1 (stereo partly drawn) [D] | 4 (≈ 8.36 µM) | 1 (≈ 2.09 µM) |  | 
Cn1cc2c(n1)C(C)(C)C1CC[C@]3(C)C(CC=C4C5CC(C)(C)CC[C@]5(C(=O)O)CC[C@]43C)[C@@]1(C)C2 (stereo partly drawn) [E] | > 16 | 2 (≈ 4.06 µM) |  | 
C[C@H]1[C@H](C)CC[C@]2(C(=O)O)CC[C@]3(C)C(=CCC4[C@@]5(C)Cc6c(n[nH]c6N)C(C)(C)[C@@H]5CC[C@]43C)[C@H]12 (stereo partly drawn) [Example 2, (4aS,6aS,6bR,13aR)-12-Amino-2,2,6a,6b,9,9,13a-heptamethyl-2,3,4,4a,5,6,6a,6b,7,8,8a,9,11,13,13a,13b,14,15b-octadecahydro-1H-chryseno[1,2-f]indazole-4-a-carboxylic acid] | 1 (≈ 2.03 µM) | 0.5 (≈ 1.01 µM) |  | 
